Measurements taken from publication PMC9696794, “Synthesis and Antimicrobial Activity of Short Analogues of the Marine Antimicrobial Peptide Turgencin A: Effects of SAR Optimizations, Cys-Cys Cyclization and Lipopeptide Modifications” (International Journal of Molecular Sciences, 2022).
Converted amounts (≈) assume the structure as drawn. Read-outs that look alike come from different tables or passages of the source. Where a SMILES comes first, the peptide text is derived from it. Bridges are numbered along the chain shown (N, C = ends). The star is where a group is joined. Lauroyl = CCCCCCCCCCCC(=O)*; Octanoyl = CCCCCCCC(=O)*

Experiments:
E. coli (Ec, ATCC 25922) = assay: microbe, parasite or virus in culture; assay type: cell-based, Escherichia coli; conditions: for MIC: Escherichia coli, ATCC25922
Outline: (§1)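 Cultures grown in Mueller–Hinton broth were adjusted by OD600 to 2.5–3 × 10^4 CFU/mL and mixed with two-fold peptide dilutions from 256 to 1 µg/mL. Plates were incubated at 35 °C with OD595 monitored every hour for 24 h.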

[1] = system: E. coli MC4100 (wild type, WT); assay: microbe, parasite or virus in culture; conditions: for MIC E. coli MC4100 (WT): wild type
Outline: (§2)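 Broth microdilution in Mueller–Hinton medium, 2.5–3 × 10^4 CFU/mL inoculum, two-fold peptide dilutions from 256 to 1 µg/mL, 35 °C with OD595 read hourly for 24 h. MIC is the lowest concentration giving OD below 10% of the untreated growth control; run in triplicate.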

[2] = system: E. coli NR698 (outer membrane permeable mutant, imp4213); assay: microbe, parasite or virus in culture; conditions: for MIC E. coli NR698 (mutant): MC4100 NR698 imp4213, deficient outer membrane
Outline: as §2

[3] = system: Gram-positive bacterial strains; conditions: Table S3; MIC >256 set to 256
Outline: as §1

B. subtilis 168 [4] = assay: Bacterial biosensor membrane integrity assay (luciferase, D-luciferin influx); assay type: cell-based, Bacillus subtilis; conditions: for time of membranolytic action (luminescence peak not detectable): B. subtilis 168, 25 µg/mL and 50 µg/mL
From the text: (§3) Changes in light emission of sensor bacteria constitutively expressing the bacterial lux operon or a eukaryotic luciferase can be used as a proxy for viability and membrane integrity, respectively. Light production of the viability biosensors represents metabolic activity of the bacteria. For the membrane integrity assay on the other hand, light production depends on the influx of the externally added D-luciferin, which at neural pH will not readily pass the intact plasma membrane. An initial increase in light production therefore corresponds with damage to the plasma membrane and a concomitant influx of D-luciferin, while a subsequent drop in light emission indicates diminishing ATP reserves of the dying sensor bacteria.
A membrane integrity assay was performed using two bacterial biosensors, B. subtilis 168 (ATCC 23857) and E. coli K12 (ATCC MC1061). Both strains carry the pCSS962 plasmid that contains a eukaryotic luciferase gene (lucGR), which originate from the click beetle Pyrophorus plagiophthalamus. The assay was performed as described previously. […] D-luciferin potassium salt (Synchem Inc., Elk Grove Village, IL, USA) was added to the cell suspension at a final concentration of 1 mM. Two-fold dilutions (final assay concentration of 50–1.56 µg/mL) of peptides dissolved in Milli-Q water were prepared and added (10 µL per well) to black round-bottom 96-well microtiter plates (Nunc). Milli-Q water served as a negative control used for the normalization purpose and CHX, having known membranolytic activity, was used as a positive control. The plates were loaded into a Synergy H1 Hybrid Reader and the background luminescence was monitored before aliquots (90 µL) of the cell suspension with D-luciferin were added, one well at the time, by an automatic injector. Light emission was recorded every second for 3 min. Each study was performed at least three times independently, and the figures show a representative dataset.

B. subtilis 168 [5] = assay: Bacterial biosensor viability assay (lux operon luminescence); assay type: cell-based, Bacillus subtilis; conditions: B. subtilis 168, increasing concentrations, within 3 min
From the text: as §3
Bacterial viability, based on light production by constitutively expressed bacterial luciferase, was measured in real time according to the method described by Hansen et al.. The assay was performed using B. subtilis 168 with chromosomally integrated luxABCDE operon and E. coli K12 carrying the plasmid pCGLS-11 containing the luxCDABE operon. […] No D-luciferin was added to the cell suspension. Each assay was performed at least three times independently, and the figures show a representative dataset.

S. aureus (ATCC 9144) = assay: Bacterial killing experiment (CFU count after MIC assay); assay type: cell-based, Staphylococcus aureus
Description: (§4) A killing experiment was performed on selected lipopeptides by using actively growing cultures of S. aureus (ATCC 9144) and E. coli (ATCC 25922). The procedure was performed as previously described. […] The number of colony-forming units (CFU) was determined after 24 h of incubation at 37 °C. The tests were performed in triplicate.

E. coli (ATCC 25922) = assay: as above; assay type: cell-based, Escherichia coli
Description: as §4

[6] = at half-MIC, compared to growth control

| SMILES | MIC (E. coli (Ec, ATCC 25922); E. coli ATCC 25922, 24 h, read-out: Antimicrobial Activity (MIC) Gram − Ec) [µg/mL] | MIC (E. coli (Ec, ATCC 25922); Table 2, laboratory strain, read-out: MIC E. coli ATCC 25922 (from Table 1)) [µg/mL] | MIC ([1]; Escherichia coli, read-out: MIC E. coli MC4100 (WT)) [µg/mL] | MIC ([2]; Escherichia coli, read-out: MIC E. coli NR698 (mutant)) [µg/mL] | MIC E. coli MC4100 (WT) [1] [µg/mL] | MIC E. coli NR698 (mutant) [2] [µg/mL] | GM of MIC G+ [3] [µg/mL] | time of membranolytic action (luminescence peak not detectable) (B. subtilis 168 [4]) [s] | effect on viability (light emission) (B. subtilis 168 [5]) | colony-forming units (CFU) after treatment (S. aureus (ATCC 9144); at MIC (or above), 24 h) | colony-forming units (CFU) after treatment (S. aureus (ATCC 9144); [6]) | colony-forming units (CFU) after treatment (E. coli (ATCC 25922); at MIC (or above), 24 h) | colony-forming units (CFU) after treatment (E. coli (ATCC 25922); [6]) | MIC E. coli ATCC 25922 (from Table 1) (E. coli (Ec, ATCC 25922); ATCC 25922, 2 h) [µg/mL] | Antimicrobial Activity (MIC) Gram − Ec (E. coli (Ec, ATCC 25922); ATCC 25922, 24 h) [µg/mL] | effect on membrane integrity (B. subtilis 168 [4]; B. subtilis 168, within 3 min) |
| --- | --- | --- | --- | --- | --- | --- | --- | --- | --- | --- | --- | --- | --- | --- | --- | --- |
| [H]/N=C(\N/C(=N/[H])NCCCCCCNC(=N)NC(=N)Nc1ccc(Cl)cc1)Nc1ccc(Cl)cc1 [Chlorhexidine, reference compound] | 1.6 (≈ 3.17 µM) | 1.6 (≈ 3.17 µM) | 0.3 (≈ 0.594 µM) | 0.3 (≈ 0.594 µM) |  |  |  |  |  |  |  |  |  |  |  |  |
| CCCCCCCC(=O)N[C@H]1CSSC[C@@H](C(=O)N[C@@H](CCCCN)C(=O)N[C@@H](CC(C)C)C(N)=O)NC(=O)[C@H](CCCCN)NC(=O)[C@H](Cc2c[nH]c3ccccc23)NC(=O)CNC(=O)[C@H](Cc2c[nH]c3ccccc23)NC(=O)[C@H](Cc2c[nH]c3ccccc23)NC(=O)[C@H](CCCCN)NC(=O)[C@H](CCCCN)NC(=O)CNC1=O [Peptide C8-cTurg-2, C8- (CGKKWWGWKC)KL-NH2] (Octanoyl-CGKKWWGWKCKL-NH2; disulfide 1-10) |  |  |  |  | 8 (≈ 4.86 µM) | 2 (≈ 1.21 µM) | 3 | < 3 | dose-dependent effect on viability | No CFU were observed | slightly less colony-forming units (CFU) were formed | No CFU were observed | slightly less colony-forming units (CFU) were formed |  |  |  |
| CCCCCCCCCCCC(=O)N[C@H]1CSSC[C@@H](C(=O)N[C@@H](CCCCN)C(=O)N[C@@H](CC(C)C)C(N)=O)NC(=O)[C@H](CCCCN)NC(=O)[C@H](Cc2c[nH]c3ccccc23)NC(=O)CNC(=O)CNC(=O)[C@@H]2CCCN2C(=O)[C@H](CCCCN)NC(=O)[C@H](CCCCN)NC(=O)CNC1=O [Peptide C12-cTurg-1, C12 -(CGKKPGGWKC)KL-NH2] (Lauroyl-CGKKPGGWKCKL-NH2; disulfide 1-10) |  |  |  |  | 4 (≈ 2.7 µM) | 2 (≈ 1.35 µM) | 3 | < 3 | dose-dependent effect on viability | No CFU were observed | slightly less colony-forming units (CFU) were formed | No CFU were observed | slightly less colony-forming units (CFU) were formed | 2 to 4 | 4 | rapid and strong membrane disruptive effect |
